Data on 1 compound can be found in patent US8377913B2, “Vitamin D receptor activators and methods of making” (AbbVie Inc., priority 2007, dated 2013).

Series [1] has as its system Renin mRNA in As4.1 cells. Nature of the series: Renin mRNA in As4.1 cells transfected with pcDNA-hVDR (real-time RT-PCR). The format is cell-based. As for the experimental part: As4.1 cells (ATCC, Manassas, Va.) were cultured in Dulbecco's Modified Eagle Medium DMEM (commercially available from Invitrogen, Carlsbad, Calif.) with 10% fetal bovine serum at 37° C. in a humidified 5% CO2-95% air atmosphere. C3;ells were transfected with the pcDNA-hVDR plasmid (provided by Yan Chun Li, University of Chicago) by LIPOFECTAMINE™ 2000 (Invitrogen, Carlsbad, Calif.). siRNA was transfected with the pcDNA-hVDR plasmid by LIPOFECTAMINE™ 2000 according to the manufacturer's protocol. Twenty-four hours after transfection, cells were treated with test agents.
Real-time reverse transcription-PCR was performed with a MyiQ Real-time PCR Detection System (commercially available from BioRad, Hercules, Calif.). […] TaqMan™ probes that were 5′ labeled with the reporter 6-carboxyfluorescein (FAM) and 3′ labeled with the quencher tetramethylrhodamine (TAMRA) were used and the primer and probe sets were obtained from Applied Biosystems (Foster City, Calif.). Temperature conditions consisted of a step of 5 minutes at 95° C., followed by 45 cycles of 60° C. for 1 minute and 95° C. for 15 seconds. Data was collected during each extension phase of the PCR reaction and analyzed with the accompanying software package (BioRad, Hercules, Calif.). Threshold cycles were determined for each gene.
In general terms: In qPCR the cycle at which signal appears reflects the starting amount.

In series [2] the test system is PAI-1 mRNA in human coronary artery smooth muscle cells (CASMC). Nature of the series: PAI-1 mRNA in CASMC. The class given is cell-based. The following applies: Homo sapiens. As for the experimental part:
(§1) Primary culture of human coronary artery smooth muscle cells (CASMC) (commercially available from Cambrex, Walkersville, Md.) were grown in smooth muscle growth medium SmGM-2 (commercially available from Lonza Bioscience) containing 5.5 mM glucose, 5% FBS, 50 μg/ml gentamicin, 50 ng/ml amphotericin-B, 5 μg/ml insulin, 2 ng/ml human recombinant fibroblast growth factor (hFGF), and 0.5 ng/ml human recombinant epidermal growth factor (hEGF) at 37° C. in a humidified 5% CO2-95% air atmosphere. Cells were grown to >80% confluence and used within five passages.
(§2) Real-time reverse transcription-PCR was performed with a MyiQ Real-Time PCR Detection System (BioRad, Hercules, Calif.). Each sample has a final volume of 25 μl containing 100 ng of cDNA, […] each of the forward and reverse PCR primers and […] of the TaqMan™ probe for the gene of interest (Applied Biosystems, Foster City, Calif.). Temperature conditions consisted of a step of 5 minutes at 95° C., followed by 40 cycles of 60° C. for 1 minute and 95° C. for 15 seconds. Data was collected during each extension phase of the PCR reaction and analyzed with the software package (BioRad, Hercules, Calif.). Threshold cycles were determined for each gene. […]

Series [3] relates to Thrombospondin mRNA in human coronary artery smooth muscle cells (CASMC). Nature of the series: Thrombospondin mRNA in CASMC. The format is cell-based. The settings on record: Homo sapiens. As for the experimental part:
as §1, §2

In the next series the test system is Male, C57BL6, mice. Nature of the series: Normal Mouse Calcemia Model. The format is in vivo. As to the method:
Male, C57BL6, mice were obtained from Jackson Laboratories. The mice were habituated for four days while maintained on a normal diet (D10001, Research Diets Inc.). Treatment was initiated with vehicle (20% ethanol/30% propylene glycol/50% water, 0.05 mL, s.c.) or test agent administered over a three log dose range. The animals were dosed once daily for 3 days. Twenty-four hours after the last dose, animals were anesthetized with ketamine/xylazine (100/18 mg/kg) and bled by cardiac puncture for measurement of PTH and other end points.
Measurement of PTH and minerals: Calcium (Ca), serum phosphorus (Pi), creatinine and BUN were measured from serum using an Abbott Aeroset® (Abbott Laboratories, Abbott Park, Ill.). Blood ionized calcium (iCa) was determined using the i-STAT® system (Abbott Laboratories, East Windsor, N.J.). Serum PTH was measured using a mouse parathyroid hormone (PTH) EIA kit obtained from ALPCO/Immutopics, Inc. (Windham, N.H.). Selected data is shown is Table 6. The graphs in FIG. 4 give an indication of dose response. Notable is that Example 1 produced an approximately 30% reduction in PTH over at least a three log dose range without a concomitant elevation of serum calcium of greater than 1 mg/dL.
Data analysis: Mean±standard error of the mean was calculated for each group. One way ANOVA followed by a Dunnett's test was used to assess differences between vehicle and drug-treated groups. *p<0.05=significance.

Series [4] concerns the target T1, recombinant full-length human Vitamin D nuclear receptor (Homo sapiens, UniProt P11473).
T1 sequence (P11473 1-427): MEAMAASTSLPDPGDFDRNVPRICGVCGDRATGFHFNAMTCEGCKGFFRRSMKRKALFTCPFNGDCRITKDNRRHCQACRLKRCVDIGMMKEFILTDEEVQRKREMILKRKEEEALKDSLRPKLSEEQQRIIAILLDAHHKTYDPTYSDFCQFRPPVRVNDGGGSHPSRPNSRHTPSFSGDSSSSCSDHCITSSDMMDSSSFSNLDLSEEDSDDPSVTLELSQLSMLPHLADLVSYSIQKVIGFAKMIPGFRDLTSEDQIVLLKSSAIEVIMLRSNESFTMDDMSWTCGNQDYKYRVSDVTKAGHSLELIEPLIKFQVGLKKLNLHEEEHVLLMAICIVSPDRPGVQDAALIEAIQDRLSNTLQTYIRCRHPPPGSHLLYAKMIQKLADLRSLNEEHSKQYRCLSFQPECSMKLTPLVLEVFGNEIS
Nature of the series: biochemical.
Procedure: In vitro binding of selected compounds according to the invention to VDR was assessed using the following procedure. […] Each test compound was then serially diluted in binding buffer to concentrations appropriate for the assay, as one skilled in the art can determine.
Final assay volume was 100 uL. The filled plate was incubated overnight at 4° C. with gentle shaking. After 18 hours of incubation, 20 uL of wheat germ agglutinin-coated yttrium silicate scintillation proximity assay (SPA) beads (commercially available from Amersham Biosciences, Piscataway, N.J.; Part # RPNQ0270) resuspended in binding buffer was added to each well (200 ug/well) and the plate was incubated at room temperature for 2 hours with gentle shaking.

The mark [5] stands for this setting: over at least a three log dose range.

Take `C=C1[C@H](O)CC(=C/C=C2\CCC[C@]3(C)[C@@H]([C@H](C)COC(=O)C(C)(C)C)CC[C@@H]23)C[C@H]1O` [Example 1, (2S)-2-[(1R,3R,7E, 17β)-1,3-dihydroxy-2-methylene-9,10-secoestra-5,7-dien-17-yl]propyl pivalate]: the IC50 (in general, the midpoint of a concentration-inhibition curve) in series [1] worked out at 0.3 nM; in series [2], 0.01 nM; in series [3], 4 pM; in series [4], 496 nM. For the same compound, the “concomitant elevation of serum calcium” value in the series on Male, C57BL6, mice (setting [5]) was at most 1 mg/dL. The “reduction in PTH” value in the series with Male, C57BL6, mice (setting [5]) is on record as “approximately 30%”. In addition, in the series with Male, C57BL6, mice (s.c. once daily for 3 days, dose giving 1 mg/dL change in total Ca), the “1 mg/dL Δ total Ca” value is over 100 µg/kg. The 50% effective dose (ED50) (commonly the dose at which the effect has come halfway, by size or by number of responders) with Male, C57BL6, mice (sc, 72 h, s.c. once daily for 3 days, read-out: PTH ED50) was 0.0105 mg/kg.
